Reference: US12649750B2, “Macrocyclic compounds, compositions, and methods of using thereof” (Sionna Therapeutics Inc., priority 2022, dated 2026)

Legend:
[1] = biological target: T1, NBD1 (Homo sapiens, UniProt P13569); assay: Aggregation analysis using differential static light scattering (DSLS), thermal stability of NBD1 (ΔTagg); type: binding; conditions: ΔTagg versus DMSO control, NBD1 0.2 mg/ml
T1 construct: Purified recombinant NBD1 was produced using previously described methods; made in house
T1 sequence (P13569 423-646 limits assumed): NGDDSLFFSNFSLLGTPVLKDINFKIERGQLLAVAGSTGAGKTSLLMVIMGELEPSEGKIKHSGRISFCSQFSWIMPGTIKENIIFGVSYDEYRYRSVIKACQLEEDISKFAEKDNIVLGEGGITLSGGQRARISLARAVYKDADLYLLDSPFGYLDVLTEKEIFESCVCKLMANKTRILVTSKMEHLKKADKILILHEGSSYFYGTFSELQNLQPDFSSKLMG
Outline: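 NBD1 0.2 mg/ml, S200 buffer (50 mM Tris-HCl, 150 mM NaCl, 5 mM MgCl2, 2 mM ATP, 2 mM DTT, pH7.6) + 1% glycerol; cpd in DMSO; oil overlay. Ramp 25→70° C. at 1° C./min, DSLS images every 0.5° C. ΔTagg = Tagg (inflection) − mean DMSO Tagg.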

[2] = biological target: T2, CFTR (Homo sapiens, UniProt P13569, DEL508-508); assay: TECC24 AUC fold over DMSO @10 μM, CFTR-mediated transepithelial chloride transport in CF-HBE cells; type: cell-based; conditions: test agent AUC divided by DMSO vehicle AUC, primary CF-HBE cells, ΔF508 homozygous donor, 48 hours incubation
T2 construct: Primary human bronchial epithelial cells from a ΔF508 homozygous CF donor; host or cells: primary human bronchial epithelial cells (CF-HBE), ΔF508 homozygous donor
T2 sequence (P13569 with tags, fused parts or gaps DEL508-508): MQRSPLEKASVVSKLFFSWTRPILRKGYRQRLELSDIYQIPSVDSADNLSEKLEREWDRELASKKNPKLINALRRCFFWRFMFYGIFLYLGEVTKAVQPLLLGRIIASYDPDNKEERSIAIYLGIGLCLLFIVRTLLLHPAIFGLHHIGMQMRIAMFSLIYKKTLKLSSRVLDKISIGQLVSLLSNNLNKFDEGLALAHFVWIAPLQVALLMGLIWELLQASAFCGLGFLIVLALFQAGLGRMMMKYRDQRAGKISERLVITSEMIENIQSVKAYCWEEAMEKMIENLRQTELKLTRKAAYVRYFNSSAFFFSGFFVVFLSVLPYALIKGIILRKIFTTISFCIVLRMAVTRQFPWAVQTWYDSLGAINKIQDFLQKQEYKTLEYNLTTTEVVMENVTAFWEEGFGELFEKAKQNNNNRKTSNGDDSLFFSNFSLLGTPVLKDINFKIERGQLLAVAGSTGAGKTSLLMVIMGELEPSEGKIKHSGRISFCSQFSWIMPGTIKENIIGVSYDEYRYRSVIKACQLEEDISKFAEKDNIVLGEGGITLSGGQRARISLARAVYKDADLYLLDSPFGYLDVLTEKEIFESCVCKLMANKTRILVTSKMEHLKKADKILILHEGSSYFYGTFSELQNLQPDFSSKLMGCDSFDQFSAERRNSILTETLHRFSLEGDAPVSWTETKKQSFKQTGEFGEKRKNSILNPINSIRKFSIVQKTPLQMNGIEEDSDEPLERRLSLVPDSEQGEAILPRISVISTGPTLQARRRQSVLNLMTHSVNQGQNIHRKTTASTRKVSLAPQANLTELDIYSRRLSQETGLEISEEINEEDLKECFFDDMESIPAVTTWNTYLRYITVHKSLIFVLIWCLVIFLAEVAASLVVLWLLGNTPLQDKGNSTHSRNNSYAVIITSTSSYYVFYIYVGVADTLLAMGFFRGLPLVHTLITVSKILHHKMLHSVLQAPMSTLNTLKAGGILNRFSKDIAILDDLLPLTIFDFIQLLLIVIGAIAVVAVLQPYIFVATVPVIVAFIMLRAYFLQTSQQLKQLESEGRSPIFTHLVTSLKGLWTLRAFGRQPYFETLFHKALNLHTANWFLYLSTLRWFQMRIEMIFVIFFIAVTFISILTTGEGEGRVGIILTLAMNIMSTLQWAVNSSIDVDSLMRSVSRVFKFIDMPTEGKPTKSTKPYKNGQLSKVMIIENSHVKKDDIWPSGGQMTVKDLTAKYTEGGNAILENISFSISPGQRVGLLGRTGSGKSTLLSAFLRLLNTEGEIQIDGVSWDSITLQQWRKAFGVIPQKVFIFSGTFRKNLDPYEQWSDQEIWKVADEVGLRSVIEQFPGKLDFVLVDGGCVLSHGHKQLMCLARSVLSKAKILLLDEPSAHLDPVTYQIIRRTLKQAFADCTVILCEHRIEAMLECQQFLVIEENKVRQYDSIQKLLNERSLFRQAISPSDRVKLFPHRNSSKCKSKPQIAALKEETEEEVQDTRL
Outline: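 Value is ratio of test-agent to DMSO AUC of equivalent transepithelial Cl− current, integrated from forskolin (10 μM) stimulation to CFTR inhibitor-172 (20 μM) block, with benzamil 10 μM present. CF-HBE (ΔF508/ΔF508) cultures had 48 h compound exposure at 10 μM, 36.5° C before recording.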

SMILES: CCOC(=O)C(Cc1cccc(C2(C)CCCC(C)(C)CS(=O)(=O)CCc3c(c(F)cc4[nH]ccc34)Oc3ccc(F)c(c3)-c3nc2nn3C)c1)C(F)F (stereo not shown) [Compound 131, Ethyl 2-[[3-(22,28-difluoro-3,6,10,10-tetramethyl-12,12-dioxo-24-oxa-12λ6-thia-3,4,19,30-tetrazapentacyclo[23.3.1.12,5.015,23.016,20]triaconta-1(29),2(30),4,15,17,20,22,25,27-nonaen-6-yl)phenyl]methyl]-3,3-difluoro-propanoate]
- DSLS 3D (100 μM ΔT) [1]: A (an ΔTagg value less than or equal to 5 °C is marked “A”)
- TECC (AUC, 10 μM) [2]: B (a value between 12-20 is marked “B”)

SMILES: CC(Cc1cccc(C2(N)CCCC(C)(C)CS(=O)(=O)CCc3c(c(F)cc4[nH]ccc34)Oc3ccc(F)c(c3)-c3nc2nn3C)c1)C(=O)O (stereo not shown) [Compound 138, 3-[3-(6-Amino-22,28-difluoro-3,10,10-trimethyl-12,12-dioxo-24-oxa-12λ6-thia-3,4,19,30-tetrazapentacyclo[23.3.1.12,5.015,23.016,20]triaconta-1(29),2(30),4,15,17,20,22,25,27-nonaen-6-yl)phenyl]-2-methyl-propanoic Acid]
- DSLS 3D (100 μM ΔT) [1]: C (a value greater than 10 °C and less than or equal to 25 °C is marked “C”)
- TECC (AUC, 10 μM) [2]: C (a value between 20 and 80 is marked “C”)

SMILES: Cn1nc2nc1-c1cc(ccc1F)Oc1c(F)cc3[nH]ccc3c1CCS(=O)(=O)CC(C)(C)CCCC2(C)c1cccc(O)c1 (stereo not shown) [Compound 154, 3-(22,28-Difluoro-3,6,10,10-tetramethyl-12,12-dioxo-24-oxa-12λ6-thia-3,4,19,30-tetrazapentacyclo[23.3.1.12,5.015,23.016,20]triaconta-1(29),2(30),4,15,17,20,22,25,27-nonaen-6-yl)phenol]
- DSLS 3D (100 μM ΔT) [1]: B (a value above 5 °C and less than or equal to 10 °C is marked “B”)
- TECC (AUC, 10 μM) [2]: A (a TECC value less than 12 is marked “A”)

SMILES: C/C(C(=O)O)=C(/C)c1cccc(C2(C)CCCC(C)(C)CS(=O)(=O)CCc3c(c(F)cc4[nH]ccc34)Oc3ccc(F)c(c3)-c3nc2nn3C)c1 (stereo not shown) [Compound 155, (E)-3-[3-(22,28-Difluoro-3,6,10,10-tetramethyl-12,12-dioxo-24-oxa-12λ6-thia-3,4,19,30-tetrazapentacyclo[23.3.1.12,5.015,23.016,20]triaconta-1(29),2(30),4,15,17,20,22,25,27-nonaen-6-yl)phenyl]-2-methyl-but-2-enoic Acid]
- DSLS 3D (100 μM ΔT) [1]: C (a value greater than 10 °C and less than or equal to 25 °C is marked “C”)
- TECC (AUC, 10 μM) [2]: A (a TECC value less than 12 is marked “A”)

SMILES: CC(C(=O)O)C(C)c1cccc(C2(C)CCCC(C)(C)CS(=O)(=O)CCc3c(c(F)cc4[nH]ccc34)Oc3ccc(F)c(c3)-c3nc2nn3C)c1 (stereo not shown) [Compound 156, 3-[3-(22,28-Difluoro-3,6,10,10-tetramethyl-12,12-dioxo-24-oxa-12λ6-thia-3,4,19,30-tetrazapentacyclo[23.3.1.12,5.015,23.016,20]triaconta-1(29),2(30),4,15,17,20,22,25,27-nonaen-6-yl)phenyl]-2-methyl-butanoic Acid]
- DSLS 3D (100 μM ΔT) [1]: C (a value greater than 10 °C and less than or equal to 25 °C is marked “C”)
- TECC (AUC, 10 μM) [2]: B (a value between 12-20 is marked “B”)

SMILES: COC(=O)C(C)CCc1cccc(C2(C)CCCC(C)(C)CS(=O)(=O)CCc3c(c(F)cc4[nH]ccc34)Oc3ccc(F)c(c3)-c3nc2nn3C)c1 (stereo not shown) [Compound 159, Methyl 4-[3-(22,28-difluoro-3,6,10,10-tetramethyl-12,12-dioxo-24-oxa-12λ6-thia-3,4,19,30-tetrazapentacyclo[23.3.1.12,5.015,23.016,20]triaconta-1(29),2(30),4,15,17,20,22,25,27-nonaen-6-yl)phenyl]-2-methyl-butanoate]
- DSLS 3D (100 μM ΔT) [1]: A (an ΔTagg value less than or equal to 5 °C is marked “A”)
- TECC (AUC, 10 μM) [2]: B (a value between 12-20 is marked “B”)

SMILES: CC(CCc1cccc(C2(C)CCCC(C)(C)CS(=O)(=O)CCc3c(c(F)cc4[nH]ccc34)Oc3ccc(F)c(c3)-c3nc2nn3C)c1)C(=O)O (stereo not shown) [Compound 160, 4-[3-(22,28-Difluoro-3,6,10,10-tetramethyl-12,12-dioxo-24-oxa-12λ6-thia-3,4,19,30-tetrazapentacyclo[23.3.1.12,5.015,23.016,20]triaconta-1(29),2(30),4,15,17,20,22,25,27-nonaen-6-yl)phenyl]-2-methyl-butanoic Acid]
- DSLS 3D (100 μM ΔT) [1]: C (a value greater than 10 °C and less than or equal to 25 °C is marked “C”)
- TECC (AUC, 10 μM) [2]: A (a TECC value less than 12 is marked “A”)

SMILES: C[C@@H](Cc1cccc(C2CCCC(C)(C)CS(=O)(=O)CCc3c(c(F)cc4[nH]ccc34)C(=O)c3cccc(c3)-c3ccn2n3)c1)C(=O)O (stereo partly drawn) [Compound 163, (2S)-3-[3-(22-Fluoro-10,10-dimethyl-12,12,24-trioxo-12λ6-thia-5,19,30-triazapentacyclo[23.3.1.12,5.015,23.016,20]triaconta-1(29),2(30),3,15,17,20,22,25,27-nonaen-6-yl)phenyl]-2-methyl-propanoic Acid]
- DSLS 3D (100 μM ΔT) [1]: A (an ΔTagg value less than or equal to 5 °C is marked “A”)
- TECC (AUC, 10 μM) [2]: A (a TECC value less than 12 is marked “A”)

SMILES: C[C@H](Cc1cccc(C2CCCC(C)(C)CS(=O)(=O)CCc3c(c(F)cc4[nH]ccc34)C(=O)c3cccc(c3)-c3ccn2n3)c1)C(=O)O (stereo partly drawn) [Compound 164, (2R)-3-[3-(22-Fluoro-10,10-dimethyl-12,12,24-trioxo-12λ6-thia-5,19,30-triazapentacyclo[23.3.1.12,5.015,23.016,20]triaconta-1(29),2(30),3,15,17,20,22,25,27-nonaen-6-yl)phenyl]-2-methyl-propanoic acid]
- DSLS 3D (100 μM ΔT) [1]: A (an ΔTagg value less than or equal to 5 °C is marked “A”)
- TECC (AUC, 10 μM) [2]: A (a TECC value less than 12 is marked “A”)

SMILES: Cn1nc2nc1-c1cc(ccc1F)Oc1c(F)cc3[nH]ccc3c1CCS(=O)(=O)CC(C)(C)CCCC2(C)c1cccc(CC(C(=O)O)C(F)(F)F)c1 (stereo not shown) [Compound 168, 2-[[3-(22,28-Difluoro-3,6,10,10-tetramethyl-12,12-dioxo-24-oxa-12λ6-thia-3,4,19,30-tetrazapentacyclo[23.3.1.12,5.015,23.016,20]triaconta-1(29),2(30),4,15,17,20,22,25,27-nonaen-6-yl)phenyl]methyl]-3,3,3-trifluoro-propanoic acid]
- DSLS 3D (100 μM ΔT) [1]: C (a value greater than 10 °C and less than or equal to 25 °C is marked “C”)
- TECC (AUC, 10 μM) [2]: B (a value between 12-20 is marked “B”)

SMILES: Cc1cn2nc1-c1cccc(c1)C(=O)c1c(F)cc3[nH]ccc3c1CCS(=O)(=O)CC(C)(C)CCCC2c1cccc(C[C@H](C)C(=O)O)c1 (stereo partly drawn) [Compound 170, (2S)-3-[3-(22-Fluoro-3,10,10-trimethyl-12,12,24-trioxo-12λ6-thia-5,19,30-triazapentacyclo[23.3.1.12,5.015,23.016,20]triaconta-1(29),2(30),3,15,17,20,22,25,27-nonaen-6-yl)phenyl]-2-methyl-propanoic Acid]
- DSLS 3D (100 μM ΔT) [1]: A (an ΔTagg value less than or equal to 5 °C is marked “A”)
- TECC (AUC, 10 μM) [2]: A (a TECC value less than 12 is marked “A”)
